In PMC5891627, “Binding Specificity of Two PBPs in the Yellow Peach Moth Conogethes punctiferalis (Guenée)” (Frontiers in Physiology, 2018):
Read-outs that look alike come from different tables or passages of the source.

What was measured:
[1] = biological target: CpunPBP2 (Conogethes punctiferalis, UniProt A0A1D6X8W8); test: Fluorescence displacement (competitive, 1-NPN) binding assay; settings: for IC50: 1-NPN 2 μM as fluorescent reporter, 2 μM protein; for binding affinity to CpunPBP2 (in words): ranking among the 24 tested ligands
CpunPBP2, sequence (A0A1D6X8W8 entry or part of it): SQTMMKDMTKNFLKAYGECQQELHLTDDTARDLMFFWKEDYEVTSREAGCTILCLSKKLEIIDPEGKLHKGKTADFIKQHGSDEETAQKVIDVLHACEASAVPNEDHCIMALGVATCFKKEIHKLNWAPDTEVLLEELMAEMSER
Description: (§1) The fluorescence intensity was recorded on a FluoroMax-4 spectrophotometer (Horiba Scientific, USA) at room temperature using a 1 cm light path fluorimeter quartz cuvette. The fluorescent probe N-phenyl-1-naphthylamine (1-NPN) and all the tested chemicals were dissolved in HPLC purity methanol. The final concentration was prepared 1 mM. […] The fluorescence of 1-NPN was excited at 337 nm and emission spectra were recorded between […]. […] The GraphPad Prism 5 (GraphPad Software, Inc.) was used to estimate the K1−NPN (KD of complex protein /1-NPN) values by nonlinear regression for a unique site of binding. It was assumed that the proteins were 100% active, with a stoichiometry of 1:1 (protein:ligand) at saturation. […] In the equation, [1-NPN] is the free concentration of 1-NPN, and K1−NPN is the dissociation constant of the complex protein /1-NPN.

[2] = biological target: CpunPBP5 (Conogethes punctiferalis, UniProt A0A0M4FIS7); test: as above; settings: for binding affinity to CpunPBP5 (in words): ranking among the 24 tested ligands
CpunPBP5, sequence (A0A0M4FIS7 entry or part of it): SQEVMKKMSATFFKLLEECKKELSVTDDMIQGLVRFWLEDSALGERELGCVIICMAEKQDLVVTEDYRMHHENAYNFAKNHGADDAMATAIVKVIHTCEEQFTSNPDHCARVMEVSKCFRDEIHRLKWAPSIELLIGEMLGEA
Description: as §1

[3] = pH = 7.4, calculated from IC50: KD = [IC50]/(1+[1-NPN]/K1-NPN), read-out: KD (μM), calculated dissociation constant
[4] = ratio of fluorescence intensity at the pheromone concentration of 6 mM to the initial fluorescence intensity, pH = 7.4, read-out: Int (%)
[5] = pH = 7.4, 1-NPN 2 μM as fluorescent reporter, 2 μM protein, read-out: IC50
[6] = ratio of fluorescence intensity at the pheromone concentration of 6 mM to the initial fluorescence intensity, pH = 7.4
[7] = read-out: KD (μM), calculated dissociation constant, pH = 7.4, calculated from IC50: KD = [IC50]/(1+[1-NPN]/K1-NPN)

Row | Compound | IC50 ([1]; pH = 7.4, read-out: IC50) [µM] | Kd [1, 3] [µM] | activity at 6000 µM [1, 4] [%] | IC50 [2, 5] [µM] | Kd [2, 3] [µM] | activity at 6000 µM [2, 4] [%] | Int (%) [1, 6] [%] | Int (%) [2, 6] [%] | activity at 6000 µM ([1]; pH 7.4, read-out: Int (%)) [%] | activity at 6000 µM ([2]; pH 7.4, read-out: Int (%)) [%] | Kd ([1]; read-out: dissociation constant (KD) of CpunPBP2/1-NPN complex, direct titration of 2 μM protein with 1-NPN, Scatchard plot, pH 7.4) [µM] | Kd [2] [µM] | binding affinity to CpunPBP5 (in words) [2] | IC50 ([1]; pH = 7.4) [µM] | binding affinity to CpunPBP2 (in words) [1] | Kd [1, 7] [µM] | IC50 [2] [µM]
1 | c1ccc(Nc2cccc3ccccc23)cc1 [1-NPN, N-phenyl-1-naphthylamine, reference compound] |  |  |  |  |  |  |  |  |  |  | 0.76 ± 0.1 | 0.58 ± 0.04 |  |  |  |  | 
2 | CCCCCCCCCCCCCCO [1-tetrodecanol] |  |  |  |  |  |  |  |  | 45.55 ± 0.38 | 42.29 ± 0.12 |  | 2.86 ± 0.02 | highest binding affinity | 3.94 ± 0.14 | highest binding affinity | 2.28 ± 0.08 | 3.53 ± 0.03
3 | C=CC(C)(O)CCC=C(C)C (centres unmarked) [Linalool] |  |  | 72.27 ± 0.43 |  |  | 66.92 ± 0.13 |  |  |  |  |  | 13.7 ± 1.15 | minimum binding abilities | 22 ± 4.72 | minimum binding affinities | 12.8 ± 2.74 | 17 ± 1.42
4 | C=C1CCC2CC1C2(C)C (stereo not drawn) [β-pinene] |  |  |  |  |  |  |  |  | 80.45 ± 0.68 | 68.43 ± 0.63 |  | 9.3 ± 0.31 |  | 21 ± 2.26 | minimum binding affinities | 12.2 ± 1.31 | 11.5 ± 0.39
5 | Hexenal | 34.56 ± 0.12 | 20 ± 0.68 |  | 11.7 ± 0.66 | 9.44 ± 0.53 |  | 83.11 ± 0.15 | 60.86 ± 0.49 |  |  |  |  |  |  | minimum binding affinities |  | 
6 | CC/C=C\CCO [cis-3-hexen-1-ol] |  |  |  |  |  |  |  |  | 89.59 ± 0.25 | 66.81 ± 0.61 |  | 14.9 ± 1.12 | minimum binding abilities | 34.5 ± 3.2 | minimum binding affinities | 20 ± 1.85 | 18.4 ± 1.38
7 | C=C(C)[C@H]1CC=C(C)CC1 [Limonene] | 11.9 ± 0.67 | 6.92 ± 0.39 |  | 10.7 ± 0.22 | 8.67 ± 0.18 |  | 82.86 ± 0.44 | 60.13 ± 0.09 |  |  |  |  |  |  |  |  | 
8 | COc1cc(C=O)ccc1O [Vanillin] |  |  | 85.4 ± 0.31 |  |  | 71.19 ± 0.36 |  |  |  |  |  | 20.4 ± 2.35 | minimum binding abilities | 19.9 ± 1 |  | 11.6 ± 0.58 | 25.1 ± 2.9
9 | CCCCCCCCCCC=O [Undecanal] | 7.49 ± 0.15 | 4.34 ± 0.08 | 56.59 ± 0.32 | 8.67 ± 0.04 | 7.01 ± 0.03 | 58.66 ± 0.31 |  |  |  |  |  |  |  |  |  |  | 
10 | CC1=CCC2CC1C2(C)C (stereo not drawn) [α-pinene] |  |  | 77.7 ± 0.33 |  |  | 74.88 ± 0.39 |  |  |  |  |  | 11.4 ± 1.02 |  | 27.9 ± 4.3 | minimum binding affinities | 16.2 ± 2.5 | 14.1 ± 1.26

Further lines, with some results ahead:

Row | IC50 ([1]; pH = 7.4, read-out: IC50) [µM] | Kd [1, 3] [µM] | activity at 6000 µM [1, 4] [%] | IC50 [2, 5] [µM] | Kd [2, 3] [µM] | activity at 6000 µM [2, 4] [%] | Int (%) [1, 6] [%] | Int (%) [2, 6] [%] | activity at 6000 µM ([1]; pH 7.4, read-out: Int (%)) [%] | activity at 6000 µM ([2]; pH 7.4, read-out: Int (%)) [%] | Compound | Kd ([1]; read-out: dissociation constant (KD) of CpunPBP2/1-NPN complex, direct titration of 2 μM protein with 1-NPN, Scatchard plot, pH 7.4) [µM] | Kd [2] [µM] | binding affinity to CpunPBP5 (in words) [2] | IC50 ([1]; pH = 7.4) [µM] | binding affinity to CpunPBP2 (in words) [1] | Kd [1, 7] [µM] | IC50 [2] [µM]
11 | 17.9 ± 0.83 | 10.4 ± 0.48 | 84.85 ± 0.31 | 19.7 ± 0.95 | 15.9 ± 0.77 | 68.32 ± 0.21 |  |  |  |  | CCCCCCC=O [Heptanal] |  |  | minimum binding abilities |  |  |  | 
12 | 6.17 ± 0.14 | 3.58 ± 0.08 |  | 4.67 ± 0.02 | 3.78 ± 0.01 |  | 50.42 ± 0.51 | 45.87 ± 0.10 |  |  | C=C1CC/C=C(\C)CC[C@@H]2[C@@H]1CC2(C)C (relative stereo) [Trans-caryopyllene] |  |  |  |  |  |  | 
13 | 13.1 ± 0.24 | 7.62 ± 0.14 | 72.86 ± 0.24 | 15.2 ± 0.6 | 12.5 ± 0.49 | 72.6 ± 0.11 |  |  |  |  | CCCCCCCCCC=O [Decanal] |  |  |  |  |  |  | 
14 |  |  |  |  |  |  |  |  | 88.04 ± 0.58 | 62.6 ± 0.79 | CC(=O)/C=C/C1=C(C)CCCC1(C)C [β-ionone] |  | 9.85 ± 0.38 |  | 17.3 ± 0.84 |  | 10.1 ± 0.49 | 12.2 ± 0.47
15 | 22.3 ± 1.3 | 12.9 ± 0.76 | 86.46 ± 0.38 | 9.62 ± 0.58 | 7.79 ± 0.48 | 59 ± 0.62 |  |  |  |  | CCCCCC/C=C/C=O [Trans-2-nonenal] |  |  |  |  | minimum binding affinities |  | 
16 | 11 ± 0.32 | 6.38 ± 0.19 | 78.17 ± 0.43 | 8.2 ± 0.1 | 6.64 ± 0.08 | 54.82 ± 0.07 |  |  |  |  | CCC(C)CCCC(C)C (centres unmarked) [2,6-Dimethyloctane] |  |  |  |  |  |  | 
17 | 12.3 ± 0.84 | 7.15 ± 0.49 |  | 12.2 ± 0.66 | 9.89 ± 0.53 |  | 62.32 ± 0.13 | 62.12 ± 0.30 |  |  | CCCCC/C=C/C=O [Trans-2-octanal] |  |  |  |  |  |  | 
18 |  |  |  |  |  |  |  |  | 61.8 ± 1.49 | 55.28 ± 0.1 | CC(=O)/C=C/C1C(C)=CCCC1(C)C (stereo not drawn) [α-ionone] |  | 6.79 ± 0.08 |  | 10.7 ± 0.97 |  | 6.22 ± 0.56 | 8.39 ± 0.1
19 | 14.2 ± 0.71 | 8.27 ± 0.41 | 73.64 ± 0.06 | 7.27 ± 0.06 | 5.89 ± 0.47 | 53.54 ± 0.01 |  |  |  |  | CCCCCCCCCCCCCCCC(=O)O [Palmitic acid] |  |  |  |  |  |  | 
20 | 2.82 ± 0.19 | 1.63 ± 0.11 |  | 5.25 ± 0.02 | 4.25 ± 0.02 |  | 40.51 ± 0.78 | 47.47 ± 0.12 |  |  | C=CC(=C)CC/C=C(\C)CCC=C(C)C [β-farnesene] |  |  |  |  |  |  | 
21 | 14.7 ± 0.47 | 8.5 ± 0.27 | 77.22 ± 0.07 | 13.1 ± 0.62 | 10.6 ± 0.78 | 65.83 ± 0.28 |  |  |  |  | CCCCCCCCC=O [Nonanal] |  |  |  |  |  |  | 
